The source of these data is patent US20250154174A1, “BICYCLIC HETEROCYCLES AS MRGPRX2 ANTAGONISTS” (Incyte Corporation, priority 2023, published 2025).

Assay [1] has as its target T1, MRGPRX2 (Homo sapiens, UniProt Q96LB1).
T1 sequence (Q96LB1 1-330): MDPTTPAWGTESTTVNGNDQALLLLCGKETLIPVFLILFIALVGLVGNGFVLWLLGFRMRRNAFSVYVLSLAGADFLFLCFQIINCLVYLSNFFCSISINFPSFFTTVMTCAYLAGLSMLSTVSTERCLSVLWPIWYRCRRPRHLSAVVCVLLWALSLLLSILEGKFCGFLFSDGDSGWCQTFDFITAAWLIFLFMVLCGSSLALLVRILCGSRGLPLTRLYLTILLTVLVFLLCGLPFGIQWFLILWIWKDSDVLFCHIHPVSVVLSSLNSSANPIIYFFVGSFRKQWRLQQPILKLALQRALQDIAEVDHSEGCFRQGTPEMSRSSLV
The assay is described as follows: MRGPRX2 IP1 HTRF assay. The assay is classed as cell-based. Also on record: host or cells: CHO-K1. To be noted: CHO-K1 cells stably expressing human MRGPRX2; agonist Cortistatin 14 1 μM; IP1 accumulation. As to the method: This assay measures compound inhibition of myo-Inositol 1 phosphate (IP1) accumulation in CHO-K1 cells. Chinese hamster ovary (CHO-K1) cells stably expressing human MRGPRX2 were purchased from GenScript (Piscataway, NJ).
For the HTRF IP1 determination, an IP-One GqKit (Perkin Elmer Cisbio, Waltham, MA), which includes all reagents and buffers in this protocol, was used. The cells were maintained in culture medium (Ham's F-12K) containing 10% (v/v) FBS, and 200 μg/mL Zeocin. For the assay, the cells were harvested and resuspended in culture medium with 2% FBS and without Zeocin, then were passed through a 40 μm filter. Cells were added at 20000 cells in a 5 μL/well to a 384-well white small volume cell culture plate (Greiner VWR, Radnor, PA) which contained 50 nL/well of test compound serially diluted at a selected concentration range in DMSO. 5 μL/well of prepared 2× Stimulation Buffer2 was then added to plates and was incubated at 37° C. with 5% CO2 for 1 h. 5 μL/well of agonist Cortistatin 14 (Bio-TechneR&D Systems, Minneapolis, MN) in 1×Stimulation Buffer 2, for a 1 μM final concentration, was then added to plates and incubated at 37° C. with 5% CO2 for 1 h. 6 μL/well of 1:20 diluted Detection Reagent Mix (d2 and Cryptate) was added to the plates and incubated for 1 h in the dark. Plates were read on the PHERAstar microplate reader (BMG Labtech Cary, NC) to determine the HTRF ratio of the acceptor and donor emission signals. The IP1 concentrations were calculated from a standard curve following the IP-One GQ kit instructions. Wells with DMSO only and wells with high concentration of reference antagonist were used as controls for normalization. Compound IC50 curves were globally fitted with 3- or 4-parameter Hill equation in a Genedata Screener (Genedata Basel, Switzerland).
(In general: TR-FRET usually uses a lanthanide donor and a delayed reading to cut background.)

For assay [2], the target named is T1, MRGPRX2. The assay is described as follows: MRGPRX2 FLIPR calcium mobilization assay. Type of assay: cell-based. To be noted: CHO-K1 cells stably expressing human MRGPRX2; agonist Cortistatin-14 at EC80; Ca2+ release. Also on record: host or cells: CHO-K1. The protocol:
Chinese hamster ovary (CHO-K1) cells stably expressing human MRGPRX2 were purchased from Genescript (Piscataway, NJ). The cells were maintained in culture medium (Ham's F-12K) containing 10% (v/v) FBS, 200 μg/mL Zeocin, 100 units/mL penicillin G and 100 μg/mL streptomycin (Life Technologies, Carlsbad, CA). For the assay, the cells were harvested and resuspended with culture medium without Zeocin before plating at 8000 cells per well in 20 μL in 384-well black clear bottom cell culture plates (VWR, Radnor, PA). After 24 h culture at 37° C. and 5% CO2, the cells were loaded with 20 μL/well of calcium dye (FLIPR Calcium 6 Assay Kit, Molecular Devices, San Jose, CA) diluted in loading buffer (1× Hank's Balanced Salt Solution (HBSS), 5 mM probenecid, 20 mM 4-(2-hydroxyethyl)-1-piperazineethanesulfonic acid (HEPES), pH 7.4, VWR, Radnor, PA) followed with 45 min. incubation at 37° C. and 40 min. at r.t. in the dark. Cells were then treated with the addition of 10 uL/well test compounds with a range of increasing concentrations diluted in the assay buffer (1×HBSS, 20 mM HEPES, pH 7.4, VWR, Radnor, PA) with FLIPR Penta (Molecular Devices. San Jose, CA) and incubated for 30 min. at r.t. Ca^2+ release was measured with FLIPR Penta with 10 s basal fluorescence measurement, then 12.5 μL of 5× agonist Cortistatin-14 (Tocris, Minneapolis, MN) at final concentration corresponding to the EC80 were added followed with continued fluorescence signal monitoring for an additional 110 s. The base line adjusted (median of first 10s base line) max value of the Relative Fluorescence Unit (RFU) was plotted against compound concentrations. Wells with no compound were served as the positive controls, and wells with high concentration of reference antagonist were used as negative controls. IC50 curves were globally fitted with 3- or 4-parameter Hill equation in a Genedata Screener (Genedata Basel, Switzerland).
A general note: Calcium assays in cells follow changes in intracellular calcium, usually with a dye or a luminescent sensor.

Broadly, the IC50 is the concentration at which inhibition is half-maximal.

As for `Cn1cnc2ccnc(N[C@@H]3CCC[C@H](Nc4cccc5nc(C(F)(F)F)cn45)C3)c21` [Example 1, (1R,3S)—N^1-(3-Methyl-3H-imidazo[4,5-c]pyridin-4-yl)-N^3-(2-(trifluoromethyl)imidazo[1,2-a]pyridin-5-yl)cyclohexane-1,3-diamine], the 50% inhibitory concentration (IC50) on MRGPRX2 [1] and at MRGPRX2 [2] was 100 to 1000 nM in each case. Regarding `Cn1cnc2ccnc(N[C@H]3CC[C@@H](Nc4cccc5nc(C(F)(F)F)cn45)CC3)c21` [Example 2, (1s,4s)-N^1-(3-Methyl-3H-imidazo[4,5-c]pyridin-4-yl)-N^4-(2-(trifluoromethyl)imidazo[1,2-a]pyridin-5-yl)cyclohexane-1,4-diamine], the concentration for half-maximal inhibition (IC50) at MRGPRX2 [1] fell in the range of 100 to 1000 nM; at MRGPRX2 [2] it was 0.1 to 100 nM.

`FC(F)(F)c1cn2c(N[C@H]3CCC[C@@H](Nc4nccn5cncc45)C3)cccc2n1` [Example 4, (1R,3S)—N^1-(Imidazo[1,5-a]pyrazin-8-yl)-N^3-(2-(trifluoromethyl)imidazo[1,2-a]pyridin-5-yl)cyclohexane-1,3-diamine]: the values for the IC50 at MRGPRX2 [1] and at MRGPRX2 [2] were 100 to 1000 nM and 0.1 to 100 nM, respectively. Take `Cc1cc2nc(C(F)(F)F)cc(N[C@H]3CCC[C@@H](Nc4nccc5ncn(C)c45)C3)n2n1` [Example 6, (1R,3S)—N^1-(3-Methyl-3H-imidazo[4,5-c]pyridin-4-yl)-N^3-(2-methyl-5-(trifluoromethyl)pyrazolo[1,5-a]pyrimidin-7-yl)cyclohexane-1,3-diamine]: at MRGPRX2 [2], the 50% inhibitory concentration (IC50) lay within 100 to 1000 nM.

In the case of `Cc1cc2nc(C(F)(F)F)cc(N[C@H]3CCC[C@@H](Nc4nccc5ncccc45)C3)n2n1` [Example 7, (1S,3R)—N^1-(2-Methyl-5-(trifluoromethyl)pyrazolo[1,5-a]pyrimidin-7-yl)-N^3-(1,6-naphthyridin-5-yl)cyclohexane-1,3-diamine], the half-maximal inhibitory concentration (IC50) on MRGPRX2 [1] was 100 to 1000 nM; on MRGPRX2 [2], 0.1 to 100 nM. On to `FC(F)(F)c1cc(N[C@H]2CCC[C@@H](Nc3nccn4nccc34)C2)n2nc(Br)cc2n1` [Example 8, (1S,3R)—N^1-(2-Bromo-5-(trifluoromethyl)pyrazolo[1,5-a]pyrimidin-7-yl)-N^3-(pyrazolo[1,5-a]pyrazin-4-yl)cyclohexane-1,3-diamine], for which the half-maximal inhibitory concentration (IC50) on MRGPRX2 [1] lay in the range of 100 to 1000 nM; on MRGPRX2 [2], 0.1 to 100 nM. For the compound `FC(F)(F)c1cc(N[C@H]2CCC[C@@H](Nc3nccc4ncccc34)C2)n2nc(Br)cc2n1` [Example 9, (1S,3R)—N^1-(2-Bromo-5-(trifluoromethyl)pyrazolo[1,5-a]pyrimidin-7-yl)-N^3-(1,6-naphthyridin-5-yl)cyclohexane-1,3-diamine], the half-maximal inhibitory concentration (IC50) on MRGPRX2 [1] and on MRGPRX2 [2] was 0.1 to 100 nM throughout. Take `FC(F)(F)c1cc(N[C@H]2CCC[C@@H](Nc3nnc4ccccn34)C2)n2nc(Br)cc2n1` [Example 10, (1R,3S)—N^1—([1,2,4]Triazolo[4,3-a]pyridin-3-yl)-N^3-(2-bromo-5-(trifluoromethyl)pyrazolo[1,5-a]pyrimidin-7-yl)cyclohexane-1,3-diamine]: the IC50 fell in the range of 100 to 1000 nM at MRGPRX2 [1] and 0.1 to 100 nM at MRGPRX2 [2]. With `FC(F)(F)c1cc(N[C@H]2CCC[C@@H](Nc3nccc4ncccc34)C2)n2nc(C(F)(F)F)cc2n1` [Example 11, (1S,3R)—N^1-(2,5-Bis(trifluoromethyl)pyrazolo[1,5-a]pyrimidin-7-yl)-N^3-(1,6-naphthyridin-5-yl)cyclohexane-1,3-diamine], the IC50 at MRGPRX2 [1] and at MRGPRX2 [2] was 0.1 to 100 nM throughout. In the case of `FC(F)(F)c1cc(N[C@H]2CCC[C@@H](Nc3nccn4cncc34)C2)n2nc(Br)cc2n1` [Example 12, (1S,3R)—N^1-(2-Bromo-5-(trifluoromethyl)pyrazolo[1,5-a]pyrimidin-7-yl)-N^3-(imidazo[1,5-a]pyrazin-8-yl)cyclohexane-1,3-diamine], the IC50 was 100 to 1000 nM at MRGPRX2 [1] and 0.1 to 100 nM at MRGPRX2 [2]. `Cn1cnc2ccnc(N[C@@H]3CCC[C@H](Nc4cc(C(F)(F)F)nc5cc(Br)nn45)C3)c21` [Example 13, (1S,3R)—N^1-(2-Bromo-5-(trifluoromethyl)pyrazolo[1,5-a]pyrimidin-7-yl)-N^3-(3-methyl-3H-imidazo[4,5-c]pyridin-4-yl)cyclohexane-1,3-diamine]: the figures for the IC50 at MRGPRX2 [1] and at MRGPRX2 [2] were 100 to 1000 nM and 0.1 to 100 nM, respectively.

In the case of `FC(F)(F)c1cc(N[C@H]2CCC[C@@H](Nc3nccn4cncc34)C2)n2nc(C(F)(F)F)cc2n1` [Example 14, (1S,3R)—N^1-(2,5-Bis(trifluoromethyl)pyrazolo[1,5-a]pyrimidin-7-yl)-N^3-(imidazo[1,5-a]pyrazin-8-yl)cyclohexane-1,3-diamine], the values for the half-maximal inhibitory concentration (IC50) on MRGPRX2 [1] and at MRGPRX2 [2] were 100 to 1000 nM and 0.1 to 100 nM, respectively. `Cn1cnc2ccnc(N[C@@H]3CCC[C@H](Nc4cc(C(F)(F)F)nc5cc(C(F)(F)F)nn45)C3)c21` [Example 15, (1S,3R)—N^1-(2,5-Bis(trifluoromethyl)pyrazolo[1,5-a]pyrimidin-7-yl)-N^3-(3-methyl-3H-imidazo[4,5-c]pyridin-4-yl)cyclohexane-1,3-diamine]: the half-maximal inhibitory concentration (IC50) at MRGPRX2 [1] was 100 to 1000 nM; at MRGPRX2 [2] it was 0.1 to 100 nM.

`FC(F)(F)c1cc(N[C@H]2CCC[C@@H](Nc3nccc4nccn34)C2)n2nc(Br)cc2n1` [Example 16, (1S,3R)—N^1-(2-Bromo-5-(trifluoromethyl)pyrazolo[1,5-a]pyrimidin-7-yl)-N^3-(imidazo[1,2-c]pyrimidin-5-yl)cyclohexane-1,3-diamine]: the IC50 lay within 100 to 1000 nM on MRGPRX2 [1] and 0.1 to 100 nM at MRGPRX2 [2]. In the case of `FC(F)(F)c1cc(N[C@H]2CCC[C@@H](Nc3nccc4nccn34)C2)n2nc(C(F)(F)F)cc2n1` [Example 17, (1S,3R)—N^1-(2,5-Bis(trifluoromethyl)pyrazolo[1,5-a]pyrimidin-7-yl)-N^3-(imidazo[1,2-c]pyrimidin-5-yl)cyclohexane-1,3-diamine], the IC50 on MRGPRX2 [1] and on MRGPRX2 [2] was 0.1 to 100 nM throughout. `FC(F)(F)c1cc(N[C@H]2CCC[C@@H](Nc3nnc4ccccn34)C2)n2nc(C(F)(F)F)cc2n1` [Example 18, (1R,3S)—N^1—([1,2,4]Triazolo[4,3-a]pyridin-3-yl)-N^3-(2,5-bis(trifluoromethyl)pyrazolo[1,5-a]pyrimidin-7-yl)cyclohexane-1,3-diamine]: the half-inhibitory concentration (IC50) at MRGPRX2 [1] fell in the range of 100 to 1000 nM; at MRGPRX2 [2], 0.1 to 100 nM.
